We go through four compounds from patent US20140343128A1, “Combination of a phosphoinositide 3-kinase inhibitor and a modulator of the Janus Kinase 2 - Signal Transducer and Activator of Transcription 5 pathway” (NOVARTIS FORSCHUNGSSTIFTUNG, ZWEIGNIEDERLASSUNG FRIEDRICH …, priority 2011, published 2014).

The test system of experiment [1] is pJAK2, pSTAT5, pSTAT3. In words: Time-course immunoblots/ELISA of JAK2/STAT crosstalk in breast cancer lines in vitro. The experiment is classed as cell-based, human, mouse. To be noted: for Start of JAK2 activation (pJAK2/pSTAT5 upregulation) after adding the compound: single PI3K or mTOR inhibition, in vitro time course; for pJAK2 and pSTAT5 (JAK2/STAT5 activation) in vitro: after 4 hours-8 hours of treatment. Background: Immunoblotting shows a protein as a band on a membrane.

The test system of experiment [2] is MDA231 LM2 and 4T-1 tumors. The experiment in a line: Lung metastasis (metastatic index) in tumor-bearing mice. The experiment is classed as in vivo. To be noted: mice bearing MDA231 LM2 shJAK2 or shNT tumors treated with BSK. An excerpt:
(§1) Animal experiments. SCID/beige, SCID/NOD and Balb/c mice (Jackson Labs) were maintained under specific pathogen-free conditions and were used in compliance with protocols approved by the Institutional Animal Care and Use Committees of the FMI, which conform to institutional and national regulatory standards on experimental animal usage. For orthotopical engraftment of breast cancer cell lines, 1×10^6 MDA-MB-468, 1×10^6 MDA-MB-231-LM2 and 0.5×10^6 […] or 4T-1-GFP cells were suspended in a 100-μl mixture of Basement Membrane Matrix Phenol Red-free (BD Biosciences) and PBS 1:1 and injected into the mammary gland 4 or between mammary glands 2 and 3. Primary patient breast tumors were cut into 1 mm×1 mm pieces and transplanted into mammary gland 4. […] Tumors were measured every 3 to 4 days with vernier calipers, and tumor volumes were calculated by the formula 0.5×(larger diameter)×(smaller diameter)^2. End point tumor sizes were analyzed for synergism using the formula AB/C<A/C×B/C, where C=tumor volume VHC, A=tumor volume compound 1, B=tumor volume compound 2, AB=tumor volume combination (Clarke, 1997).
Immunohistochemistry. […] Mouse lungs were fixed in Bouin's fixative and visible metastatic lung nodules were counted using a binocular.

Experiment [3] deals with IL-8. In words: IL-8 levels in tumors and plasma of treated mice. The experiment is classed as in vivo. To be noted: mice treated as in FIG. 5.
From the text: as §1, with “4. Tumor-bearing mice were randomized based on tumor volume prior to the initiation of treatment, which was initiated when average tumor volume was at least 100 mm^3.” for “4.”

For experiment [4], the system named is pJAK2/JAK2. In words: pJAK2/JAK2 ELISA in BEZ-treated human breast cancer cell lines. It is filed as cell-based. To be noted: 300 nM BEZ, 8 h, relative to DMSO.
For experiment [5], the system named is pJAK2/JAK2. In words: pJAK2/JAK2 ELISA in BEZ-treated Balb/c mouse breast cancer lines. To be noted: 300 nM BEZ, 8 h, relative to DMSO. It is filed as cell-based. Background: ELISA stands for enzyme-linked immunosorbent assay.
In experiment [6] the test system is pSTAT5/STAT5. In words: pSTAT5/STAT5 immunoblotting with densitometry in BEZ-treated human breast cancer cell lines. It is filed as cell-based. To be noted: 300 nM BEZ, 8 h, relative to DMSO.
Experiment [7] has as its system pSTAT5/STAT5. In words: pSTAT5/STAT5 immunoblotting with densitometry in BEZ-treated Balb/c mouse breast cancer lines. It is filed as cell-based. To be noted: 300 nM BEZ, 8 h, relative to DMSO.
In experiment [8] the test system is IL-8 secretion. In words: IL-8 secretion ELISA in BEZ-treated breast cancer cell lines. The experiment is classed as cell-based, human. To be noted: 300 nM BEZ; for IL8 BEZ vs. DMSO: 20 h, relative to DMSO.
Experiment [9] has as its system pAKT, pS6. The experiment in a line: Time-course immunoblots of target inhibition (pAKT, pS6) in breast cancer lines. It is filed as cell-based, human, mouse. To be noted: MDA 468, MDA 231 LM2 and 4T-1 lines; single dose; up to 20 hours after treatment.
The subject of experiment [10] is pJAK2, pSTAT5. The experiment in a line: pJAK2/pSTAT5 in xenografts of treated mice. Also noted: species or system SCID/beige mice. To be noted: 30 mg/kg once, after 8 hours of treatment.
From the text: as §1, with “4. Tumor-bearing mice were randomized based on tumor volume prior to the initiation of treatment, which was initiated when average tumor volume was at least 100 mm^3.” for “4.”

Experiment [11] relates to JAK2/STAT5 and IL-8 secretion. In words: JAK2/STAT5 and IL-8 in primary human triple-negative breast tumor xenografts. The experiment is classed as in vivo, human tumors in immunodeficient mice. To be noted: 30 mg/kg BEZ, 3-4 days, xenografts in immunodeficient mice.
From the text: as §1, with “4. Tumor-bearing mice were randomized based on tumor volume prior to the initiation of treatment, which was initiated when average tumor volume was at least 100 mm^3.” for “4.”
(In general: Xenograft models place foreign cells or tissue in a host animal.)

With `Fc1cc(-c2cccc3ncc(-c4cnn(C5CCNCC5)c4)nc23)cc(F)c1CN1CCOCC1` [COMPOUND D, 8-(3,5-Difluoro-4-morpholin-4-ylmethyl-phenyl)-2-(1-piperidin-4-yl-1H-pyrazol-4-yl)-quinoxaline], the “Upregulation of pSTAT5 by BEZ” value in experiment [1] (JAK2 inhibition added to BEZ treatment, MDA 468 cells, 8 h BEZ) is given as “counteracted”. The “Metastasis (metastatic index), BSK alone” value in experiment [2] is “reduces”. Besides, the “IL-8 secretion in vivo (tumors and plasma)” value in experiment [3] is recorded as “reduced”.

Regarding `CO[C@H]1C[C@@H]2CC[C@@H](C)[C@@](O)(O2)C(=O)C(=O)N2CCCC[C@H]2C(=O)O[C@H]([C@H](C)C[C@@H]2CC[C@@H](OCCO)[C@H](OC)C2)CC(=O)[C@H](C)/C=C(\C)[C@@H](O)[C@@H](OC)C(=O)[C@H](C)C[C@H](C)/C=C/C=C/C=C/1C` [RAD001, everolimus, reference compound], the “Start of JAK2 activation (pJAK2/pSTAT5 upregulation) after adding the compound” value in experiment [1] stood at 4 hours.

`Cn1c(=O)n(-c2ccc(C(C)(C)C#N)cc2)c2c3cc(-c4cnc5ccccc5c4)ccc3ncc21` [COMPOUND A, 2-methyl-2-[4-(3-methyl-2-oxo-8-quinolin-3-yl-2,3-dihydro-imidazo[4,5-c]quinolin-1-yl)-phenyl]-propionitrile]: the “pJAK2/JAK2 BEZ vs. DMSO” value in experiment [4] (BT474 cells) is on record as 0.95; in [4] (BT549 cells), 1.21; in experiment [4] (HCC1937 cells) it was 1.62; in [4] (HCC1954 cells) it was 1.32; in experiment [4] (Hs578t cells), 1.18; in [4] (MCF7 cells), 0.74. Moreover, the “pJAK2/JAK2 BEZ vs. DMSO” value turned out to be 2.11 in experiment [4] (MCF10A cells); 2.18 in experiment [4] (MDA 231 LM2 cells); 1.25 in experiment [4] (MDA 231 cells); 0.88 in experiment [4] (MDA415 cells); 1.53 in [4] (MDA 436 cells); 2.32 in [4] (MDA 468 cells). The “pJAK2/JAK2 BEZ vs. DMSO” value in experiment [4] (SKBR3 cells) was 0.65; in experiment [4] (SUM159 cells), 0.92; in experiment [4] (T47D cells), 1.05; in experiment [4] (ZR75-1 cells) it was 1.36; in experiment [5] (4T-1 cells), 2.02; in [5] (168FARN cells), 1.74. Besides, the “pSTAT5/STAT5 BEZ vs. DMSO” value in experiment [6] (BT474 cells) turned out to be 1.02; in [6] (BT549 cells), 1.61; in [6] (HCC1937 cells) it was 1.66; in experiment [6] (HCC1954 cells), 1.05; in experiment [6] (Hs578t cells), 0.96; in experiment [6] (MCF7 cells), 0.92. Moreover, the “pSTAT5/STAT5 BEZ vs. DMSO” value came to 3.21 in experiment [6] (MCF10A cells); 2.32 in experiment [6] (MDA 231 LM2 cells); 1.58 in experiment [6] (MDA 231 cells); 1.77 in experiment [6] (MDA 436 cells); 2.11 in [6] (MDA 468 cells); 0.82 in experiment [6] (SKBR3 cells). Moreover, the “pSTAT5/STAT5 BEZ vs. DMSO” value in [6] (SUM159 cells) is reported as 1.09; in [6] (T47D cells) it was 0.62; in [6] (ZR75-1 cells) it was 1.62; in experiment [7] (4T-1 cells), 2.65; in experiment [7] (168FARN cells), 1.9. In addition, in [8] (breast cancer cells), the “IL-8 secretion in breast cancer” value is on record as “induces”. For the same compound, the “IL8 BEZ vs. DMSO” value is 0.99 in experiment [8] (BT474 cells); 1.42 in [8] (BT549 cells); 1.06 in experiment [8] (HCC1937 cells); 1.22 in [8] (HCC1954 cells); 1.08 in experiment [8] (Hs578t cells); 0.81 in experiment [8] (MCF7 cells). Besides, the “IL8 BEZ vs. DMSO” value is listed as 1.23 in [8] (MCF10A cells); 2.04 in [8] (MDA 231 LM2 cells); 1.41 in experiment [8] (MDA 231 cells); 0.91 in experiment [8] (MDA415 cells); 1.41 in [8] (MDA 436 cells); 1.91 in experiment [8] (MDA 468 cells). Moreover, the “IL8 BEZ vs. DMSO” value in experiment [8] (SKBR3 cells) is 1.01; in experiment [8] (SUM159 cells), 1.24; in experiment [8] (T47D cells) it was 0.71; in experiment [8] (ZR75-1 cells) it was 1.55. In addition, the pAKT levels result in [9] is recorded as “reduced”. Moreover, the pS6 levels entry in experiment [9] is on record as “completely blocked”. Also, the “Pattern of JAK2/STAT5 activation” value in [1] (300 nM BEZ) was “biphasic activation”. Also, the “Levels of pSTAT3” value in experiment [1] (BEZ treatment) is listed as “largely unaffected”. Besides, the “pJAK2 and pSTAT5 (JAK2/STAT5 activation) in vitro” value is “activates” in experiment [1] and “considerable upregulation” in [1] (listed as BEZ). In addition, the figures for the “pJAK2 and pSTAT5 (JAK2/STAT5 activation) in vivo” value in experiment [10] and in experiment [10] (listed as BEZ) were “activates” and “considerable upregulation”, respectively. Further, in [3], the “IL-8 secretion in vivo (tumors and plasma)” value is listed as “enhanced”. Further, the “JAK2/STAT5 and IL-8 secretion in human primary triple-negative breast tumors” value in experiment [11] was “activates”.

Take `Nc1cc(C(F)(F)F)c(-c2cc(N3CCOCC3)nc(N3CCOCC3)n2)cn1` [COMPOUND C, 5-(2,6-di-morpholin-4-yl-pyrimidin-4-yl)-4-trifluoromethyl-pyridin-2-ylamine]: in experiment [1], the “Start of JAK2 activation (pJAK2/pSTAT5 upregulation) after adding the compound” value was 8 hours.
